Experimental data reported in US20080305186A1, “Method and Composition for the Treatment of Cardiac Hypertrophy” (BOARD OF REGENTS, THE UNIVERSITY OF TEXAS SYSTEM, priority 2007, published 2008).

Test system: cardiac gene expression
Test: Microarray analysis of cardiac gene expression (GeneChip Mouse Genome 430 2.0)
Type: in vivo, mice
Protocol: Microarray Sample Preparation and Analysis. Animal hearts were rapidly removed, and the atria and right ventricles were cut and immediately plunged into TRIzol Reagent (Life Technologies). Total RNA was isolated following the manufacturer's instructions, purified by phenol-chloroform extraction and then ethanol precipitation, and 20 μg further processed for microarray analysis. Briefly, cDNA synthesis, in vitro transcription, and labeling and fragmentation to produce the oligonucleotide probes were performed as instructed by the GeneChip manufacturer (Affymetrix). The probes were first hybridized to a test array (Affymetrix) and then to the GeneChip Mouse Genome 430 2.0 Array, using the GeneChip Hybridization Oven 640. The chips were washed in a GeneChip Fluidics Station 450 (Affymetrix), and the results were visualized with a GeneChip G7 scanner (Affymetrix). RMA normalization, pairwise comparisons, Student's t test and Benjamini and Hochberg correction were subsequently performed using GeneSifter (VizX Labs, Seattle, Wash.) and Spotfire DecisionSite 8.3 (Spotfire, Inc., Somerville, Mass.).
Effects on Gene Expression Profile. […] One mouse heart was used for each array, and was performed in triplicate, generating a total of 12 arrays. GeneSifter was used to perform RMA normalization, pairwise comparisons of averaged signal intensity values, and Student's t-test with Benjamini and Hochberg correction, and Spotfire was used to perform pairwise comparisons. […] Additionally, genes that were altered between any two N or cardiac hypertrophy samples were removed, as these alterations most likely represented normal variations between mice.

[1] = mouse heart, vs isoproterenol only (CH), CH vs normal 7.4
[2] = mouse heart, vs isoproterenol only (CH), CH vs normal −1.7
[3] = mouse heart, vs isoproterenol only (CH), CH vs normal −1.8
[4] = mouse heart, vs isoproterenol only (CH), CH vs normal −1.9
[5] = mouse heart, vs isoproterenol only (CH), CH vs normal −2.0
[6] = mouse heart, vs isoproterenol only (CH), CH vs normal −2.1
[7] = mouse heart, vs isoproterenol only (CH), CH vs normal −2.4
[8] = mouse heart, vs isoproterenol only (CH), CH vs normal −2.5
[9] = mouse heart, vs isoproterenol only (CH), CH vs normal −2.6
[10] = mouse heart, vs isoproterenol only (CH), CH vs normal −2.7
[11] = mouse heart, vs isoproterenol only (CH), CH vs normal −2.9
[12] = mouse heart, vs isoproterenol only (CH), CH vs normal −3.0
[13] = mouse heart, vs isoproterenol only (CH), CH vs normal −3.2
[14] = mouse heart, vs isoproterenol only (CH), CH vs normal −3.3

Compound: NC(=O)N1c2ccccc2C=Cc2ccccc21 [carbamazepine]
- FC Membrane-spanning 4-domains, subfamily A, member 6d (Ms4a6d), NM_026835 (mouse heart, vs isoproterenol only (CH), CH vs normal 6.4): −1.6 fold
- FC Proteoglycan 4 (megakaryocyte stimulating factor, articular superficial zone protein) (Prg4), NM_021400 (mouse heart, vs isoproterenol only (CH), CH vs normal 6.8): −1.5 fold
- FC CCAATenhaer binding protein (CEBP), delta (Cebpd), BB831146 [1]: −1.6 fold
- FC Ca(2+)-sensitive chloride channel 2 (Clca2), AF108501 [1]: −2.0 fold
- FC Lysyl oxidase (Lox), M65143 [1]: −2.1 fold
- FC Cytokine inducible SH2-containing protein 3 (Socs3), BB831725 (mouse heart, vs isoproterenol only (CH), CH vs normal 8.2): −2.4 fold
- FC C-type (calcium dependent, carbohydrate recognition domain) lectin, superfamily member 8 (Clecsf8), NM_010819 (mouse heart, vs isoproterenol only (CH), CH vs normal 10.8): −1.7 fold
- FC Lysyl oxidase (Lox), NM_010728 (mouse heart, vs isoproterenol only (CH), CH vs normal 11.1): −2.4 fold
- FC FK506 binding protein 5 (51 kDa) (Fkbp5), BC015260 (mouse heart, vs isoproterenol only (CH), CH vs normal 16.3): −1.6 fold
- FC Lipocalin 2 (Lcn2), X14607 (mouse heart, vs isoproterenol only (CH), CH vs normal 27.7): −1.6 fold
- FC Serine protease inhibitor 2-2 (Spi2-2) (Serpin3n), NM_009252 (mouse heart, vs isoproterenol only (CH), CH vs normal 40.5): −2.3 fold
- FC Metallophosphoesterase domain containing 2 (Mpped2), AK012553 (mouse heart, vs isoproterenol only (CH), CH vs normal −1.5): 1.6 fold
- FC cDNA, BM229539 (mouse heart, vs isoproterenol only (CH), CH vs normal −1.6): 1.6 fold
- FC Cytoplasmic polyadenylation element binding protein 3 (Cpeb3), BB281000 [2]: 1.8 fold
- FC EphrinB3 (Efnb3), BQ175608 [2]: 1.5 fold
- FC Nuclear factor IB (Nfib), BB092799 [2]: 2.0 fold
- FC Preimplantation protein 4 (Prei4), BB550273 [2]: 1.7 fold
- FC Triple futional domain (PTPRF interacting) (Trio), BB794936 [2]: 1.7 fold
- FC EST, BB126796 [3]: 2.2 fold
- FC EST, BB451134 [3]: 2.2 fold
- FC Metastasis suppressor 1 (Mtss1), BB326749 [3]: 1.6 fold
- FC Tetratricopeptide repeat domain (Ttc3), BB833716 [3]: 2.0 fold
- FC EST, BM941198 [4]: 1.7 fold
- FC Jumonji, AT rich interactive domain 1A (Rbp2 like) (Jarid1a), BB376407 [4]: 1.8 fold
- FC Guanine nucleotide binding protein, alpha 12 (Gna12), NM_010302 [5]: 1.6 fold
- FC Zi finger and BTB domain containing 20 (Zbtb20), BB175650 [5]: 1.9 fold
- FC C1q and tumor necrosis factor related protein 4 (C1qtnf4), NM_026161 [6]: 1.5 fold
- FC Cold inducible RNA binding protein (Cirbp), NM_007705 [6]: 2.1 fold
- FC Adrenergic receptor, alpha 1b (Adra1b), NM_007416 (mouse heart, vs isoproterenol only (CH), CH vs normal −2.3): 1.6 fold
- FC DNA segment, Chr 9, ERATO Doi 256, expressed, BG066667 [7]: 1.8 fold
- FC Insulin degrading enzyme (Ide), AK014703 [7]: 1.9 fold
- FC Sno, strawbeny notch homolog 1 (Sno1), BE947961 [7]: 1.6 fold
- FC B-cell translocation gene 2, anti-proliferative (Btg2), BG965405 [8]: 1.8 fold
- FC cDNA, BC026793 [8]: 1.8 fold
- FC Desmoglein 2 (Dsg2), AB072269 [9]: 2.5 fold
- FC Heat shock protein, 84 kDa 1 (Hsp90ab1), BI154147 [9]: 3.7 fold
- FC Myocyte enhaer factor 2C (Mef2c), AI595932 [9]: 1.9 fold
- FC Restin-like 2 (Rsnl2), AK018895 [9]: 1.9 fold
- FC Jumonji domain containing 3 (Jmjd3), AW763746 [10]: 1.9 fold
- FC cDNA (similar to integrin beta 1 binding protein 3), AK009897 [10]: 2.7 fold
- FC Karyopherin (importin) beta 1 (Kpnb1), AW544889 (mouse heart, vs isoproterenol only (CH), CH vs normal −2.8): 2.3 fold
- FC PPAR gamma coactivator-1beta protein (Ppargc1b), NM_133249 [11]: 2.0 fold
- FC SET and MYND domain containing 1 (Smyd1), NM_009762 [11]: 1.7 fold
- FC Dual specificity phosphatase 8 (Dusp8), NM_008748 [12]: 1.8 fold
- FC GATA binding protein 4 (Gata4), NM_008092 [12]: 2.1 fold
- FC Actin, beta, cytoplasmic (Actb), AW537707 [13]: 1.7 fold
- FC Methionine sulfoxide reductase B3 (Msrb3), BB277041 [13]: 1.7 fold
- FC Thymoma viral proto-oogene 1 (Akt1), M94335 [14]: 1.6 fold
- FC cDNA, BB283973 [14]: 1.9 fold
- FC cDNA, BB534971 (mouse heart, vs isoproterenol only (CH), CH vs normal −3.5): 1.6 fold
- FC cDNA, BB026304 (mouse heart, vs isoproterenol only (CH), CH vs normal −3.8): 2.5 fold
- FC Kinesin-like protein (Kif1b), D17577 (mouse heart, vs isoproterenol only (CH), CH vs normal −3.9): 1.6 fold
- FC Kv channel-interacting protein 2a (Kcnip2), AF439339 (mouse heart, vs isoproterenol only (CH), CH vs normal −4.4): 2.6 fold
- FC Potassium voltage-gated channel, Isk-related subfamily, member 1 (Kcne1), NM_008424 (mouse heart, vs isoproterenol only (CH), CH vs normal −4.6): 1.5 fold
- FC Tumor rejection antigen gp96 (Tra1); heat shock protein 90 kDa beta (Grp94), member 1 (Hsp90b1), BE995678 (mouse heart, vs isoproterenol only (CH), CH vs normal −9.4): 2.7 fold
- FC Cadherin 13 (Cdh13), AK016527 (mouse heart, vs isoproterenol only (CH), CH vs normal −10.0): 5.9 fold
- number of the 472 cardiac hypertrophy-specific Combo-altered genes also altered by the drug alone (statistical parameters lifted (average fold-changes irrespective of statistical measures)): 98
- G7e protein gene, fold-change (the only gene significantly altered): −2.2 fold
